The values that follow come from PMC11378028 (RSC Advances, 2024).

The target in experiment [1] is E. coli DNA gyrase (Escherichia coli, UniProt P0AES6). Description: DNA gyrase supercoiling plate assay. Type of experiment: biochemical. The settings on record: IC50 E. coli gyrase, supercoiling assay.
The target in experiment [2] is S. aureus DNA gyrase (Staphylococcus aureus, UniProt P0A0K8). Description: DNA gyrase supercoiling plate assay. Type of experiment: biochemical. The settings on record: for remaining activity at 1 µM: read-out: RA (residual activity) S. aureus gyrase.
In experiment [3] the target is E. coli topoisomerase IV (Escherichia coli, UniProt P20083). Description: topoisomerase IV relaxation plate assay. Type of experiment: biochemical. Conditions: for remaining activity at 1 µM / remaining activity at 10 µM: read-out: RA (residual activity) E. coli topo IV.
Experiment [4] deals with S. aureus topoisomerase IV (Staphylococcus aureus, UniProt P0C1S7). The experiment is described as follows: topoisomerase IV relaxation plate assay. Type of experiment: biochemical. The settings on record: for remaining activity at 1 µM: read-out: RA (residual activity) S. aureus topo IV.
Experiment [5] has as its target human DNA topoisomerase IIα (Homo sapiens, UniProt P11388). The experiment is described as follows: human DNA topoisomerase IIα inhibition. Type of experiment: biochemical. The settings on record: read-out: RA (residual activity) Human topo IIα.
For experiment [6], the system named is S. aureus ATCC 29213. Description: MIC, broth microdilution. The class given is cell-based, Staphylococcus aureus. Conditions: Staphylococcus aureus, ATCC29213, read-out: MIC S. aureus ATCC 29213, broth microdilution. In general terms: In broth dilution the organism is exposed to a series of concentrations in liquid medium.
The test system of experiment [7] is S. aureus ATCC 43300 (MRSA). The experiment is described as follows: MIC, broth microdilution. Type of experiment: cell-based. Conditions: Staphylococcus aureus, ATCC43300|MRSA, read-out: MIC S. aureus ATCC 43300 (MRSA).
In experiment [8] the test system is S. aureus ATCC 700699 (VISA). The experiment is described as follows: MIC, broth microdilution. The class given is cell-based. The settings on record: Staphylococcus aureus, ATCC700699|VISA, read-out: MIC S. aureus ATCC 700699 (VISA).
Experiment [9] has as its system E. faecalis ATCC 29212. The experiment is described as follows: MIC, broth microdilution. Type of experiment: cell-based. Conditions: Enterococcus faecalis, ATCC29212, read-out: MIC E. faecalis ATCC 29212.
The subject of experiment [10] is E. coli ATCC 25922. Description: MIC, broth microdilution. The class given is cell-based. The settings on record: Escherichia coli, ATCC25922, read-out: MIC E. coli ATCC 25922.
Experiment [11] deals with P. aeruginosa ATCC 27853. Description: MIC, broth microdilution. The settings on record: Pseudomonas aeruginosa, ATCC27853, read-out: MIC P. aeruginosa ATCC 27853. Type of experiment: cell-based.
Experiment [12] relates to A. baumannii ATCC 17978. Description: MIC, broth microdilution. The settings on record: Acinetobacter baumannii, ATCC17978, read-out: MIC A. baumannii ATCC 17978. The class given is cell-based.
For experiment [13], the system named is K. pneumoniae ATCC 10031. The experiment is described as follows: MIC, broth microdilution. The class given is cell-based. Conditions: Klebsiella pneumoniae, ATCC10031, read-out: MIC K. pneumoniae ATCC 10031.
The subject of experiment [14] is E. spp. cloacae ATCC 13047. The experiment is described as follows: MIC, broth microdilution. The class given is cell-based. The settings on record: read-out: MIC E. spp. cloacae ATCC 13047.
In experiment [15] the test system is A. baumannii ATCC 19606. Description: MIC, broth microdilution. The class given is cell-based. The settings on record: Acinetobacter baumannii, ATCC19606, read-out: MIC A. baumannii ATCC 19606.
The subject of experiment [16] is K. pneumoniae ATCC 700603. The experiment is described as follows: MIC, broth microdilution. Type of experiment: cell-based. Conditions: Klebsiella pneumoniae, ATCC700603, read-out: MIC K. pneumoniae ATCC 700603.
Experiment [17] concerns K. aerogenes ATCC 13408. The experiment is described as follows: MIC, broth microdilution. The settings on record: Klebsiella aerogenes, ATCC13408, read-out: MIC K. aerogenes ATCC 13408. Type of experiment: cell-based.

Some results are limits rather than exact numbers.

Sequence of E. coli topoisomerase IV (P20083 whole entry): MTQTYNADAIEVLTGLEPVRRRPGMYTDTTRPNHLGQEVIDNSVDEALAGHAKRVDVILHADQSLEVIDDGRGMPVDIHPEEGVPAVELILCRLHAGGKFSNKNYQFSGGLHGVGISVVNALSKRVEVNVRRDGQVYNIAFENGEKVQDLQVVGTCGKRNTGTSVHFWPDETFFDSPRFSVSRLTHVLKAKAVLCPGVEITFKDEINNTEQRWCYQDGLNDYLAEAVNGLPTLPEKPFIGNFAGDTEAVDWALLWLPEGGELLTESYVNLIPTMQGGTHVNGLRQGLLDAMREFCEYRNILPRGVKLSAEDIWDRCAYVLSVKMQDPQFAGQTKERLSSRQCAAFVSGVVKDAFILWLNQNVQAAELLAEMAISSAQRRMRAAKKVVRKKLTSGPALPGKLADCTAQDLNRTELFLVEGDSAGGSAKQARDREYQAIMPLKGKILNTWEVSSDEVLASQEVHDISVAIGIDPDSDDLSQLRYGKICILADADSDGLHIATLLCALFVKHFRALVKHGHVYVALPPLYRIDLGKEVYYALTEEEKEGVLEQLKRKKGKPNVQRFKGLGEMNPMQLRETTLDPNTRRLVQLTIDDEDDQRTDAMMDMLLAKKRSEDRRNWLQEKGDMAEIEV
Sequence of E. coli topoisomerase IV (P0AFI2 whole entry partner): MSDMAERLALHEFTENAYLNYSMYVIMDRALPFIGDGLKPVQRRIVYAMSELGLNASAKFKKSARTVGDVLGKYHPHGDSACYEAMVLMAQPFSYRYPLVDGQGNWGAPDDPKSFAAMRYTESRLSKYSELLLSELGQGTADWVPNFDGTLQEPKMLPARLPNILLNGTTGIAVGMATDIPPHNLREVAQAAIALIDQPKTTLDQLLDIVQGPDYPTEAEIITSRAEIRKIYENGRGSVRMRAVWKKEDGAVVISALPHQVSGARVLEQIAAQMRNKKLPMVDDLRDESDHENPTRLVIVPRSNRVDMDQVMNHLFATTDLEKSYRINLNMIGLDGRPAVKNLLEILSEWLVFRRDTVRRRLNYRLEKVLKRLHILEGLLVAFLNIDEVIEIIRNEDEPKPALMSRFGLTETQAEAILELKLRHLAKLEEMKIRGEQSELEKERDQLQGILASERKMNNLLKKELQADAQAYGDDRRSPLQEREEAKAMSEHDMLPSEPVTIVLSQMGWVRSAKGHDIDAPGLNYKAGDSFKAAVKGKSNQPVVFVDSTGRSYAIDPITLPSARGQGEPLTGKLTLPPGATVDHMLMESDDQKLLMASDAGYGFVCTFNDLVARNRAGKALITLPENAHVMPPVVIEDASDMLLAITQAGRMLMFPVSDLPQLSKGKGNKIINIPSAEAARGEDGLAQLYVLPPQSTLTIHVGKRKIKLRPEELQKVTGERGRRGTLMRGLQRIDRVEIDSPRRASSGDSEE
Sequence of human DNA topoisomerase IIα (P11388 whole entry): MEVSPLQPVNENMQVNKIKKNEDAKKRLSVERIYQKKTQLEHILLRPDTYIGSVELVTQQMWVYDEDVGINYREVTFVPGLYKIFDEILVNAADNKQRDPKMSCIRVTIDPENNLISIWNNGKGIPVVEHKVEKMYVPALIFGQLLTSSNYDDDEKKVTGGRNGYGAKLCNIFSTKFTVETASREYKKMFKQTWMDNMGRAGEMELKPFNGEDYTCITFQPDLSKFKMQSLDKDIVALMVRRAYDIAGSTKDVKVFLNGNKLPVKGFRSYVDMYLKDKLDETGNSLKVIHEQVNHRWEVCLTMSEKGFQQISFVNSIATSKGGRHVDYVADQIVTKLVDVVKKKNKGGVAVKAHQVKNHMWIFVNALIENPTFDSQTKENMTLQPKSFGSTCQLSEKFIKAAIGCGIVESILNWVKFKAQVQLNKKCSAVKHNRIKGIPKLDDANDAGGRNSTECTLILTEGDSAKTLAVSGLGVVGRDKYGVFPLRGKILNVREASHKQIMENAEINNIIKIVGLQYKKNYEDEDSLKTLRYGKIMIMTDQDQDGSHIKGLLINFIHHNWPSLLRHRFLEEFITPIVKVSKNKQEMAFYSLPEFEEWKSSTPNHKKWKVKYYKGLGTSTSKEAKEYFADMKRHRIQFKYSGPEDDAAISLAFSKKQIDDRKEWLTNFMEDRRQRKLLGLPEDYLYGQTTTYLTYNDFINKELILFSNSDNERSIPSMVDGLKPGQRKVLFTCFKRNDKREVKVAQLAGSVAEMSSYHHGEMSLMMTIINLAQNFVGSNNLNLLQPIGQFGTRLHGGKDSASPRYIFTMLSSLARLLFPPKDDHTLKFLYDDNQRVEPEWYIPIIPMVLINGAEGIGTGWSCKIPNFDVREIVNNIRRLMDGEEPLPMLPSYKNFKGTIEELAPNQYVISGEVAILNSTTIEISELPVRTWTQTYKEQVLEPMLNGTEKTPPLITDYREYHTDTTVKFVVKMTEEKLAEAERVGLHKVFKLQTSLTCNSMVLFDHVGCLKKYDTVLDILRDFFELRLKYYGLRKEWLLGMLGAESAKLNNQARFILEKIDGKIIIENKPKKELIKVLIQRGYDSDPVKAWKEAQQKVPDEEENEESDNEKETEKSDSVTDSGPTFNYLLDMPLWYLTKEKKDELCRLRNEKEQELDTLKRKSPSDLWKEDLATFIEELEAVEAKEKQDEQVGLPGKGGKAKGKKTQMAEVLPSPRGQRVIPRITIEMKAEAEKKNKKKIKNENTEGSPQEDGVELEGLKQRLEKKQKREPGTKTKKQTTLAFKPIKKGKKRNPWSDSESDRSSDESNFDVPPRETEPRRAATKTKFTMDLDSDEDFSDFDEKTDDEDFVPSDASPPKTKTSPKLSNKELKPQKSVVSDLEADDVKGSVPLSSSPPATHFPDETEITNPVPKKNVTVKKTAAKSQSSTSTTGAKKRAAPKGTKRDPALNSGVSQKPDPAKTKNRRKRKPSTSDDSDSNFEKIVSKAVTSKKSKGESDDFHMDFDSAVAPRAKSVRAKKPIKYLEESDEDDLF
Sequence of S. aureus DNA gyrase (P0A0K8 whole entry): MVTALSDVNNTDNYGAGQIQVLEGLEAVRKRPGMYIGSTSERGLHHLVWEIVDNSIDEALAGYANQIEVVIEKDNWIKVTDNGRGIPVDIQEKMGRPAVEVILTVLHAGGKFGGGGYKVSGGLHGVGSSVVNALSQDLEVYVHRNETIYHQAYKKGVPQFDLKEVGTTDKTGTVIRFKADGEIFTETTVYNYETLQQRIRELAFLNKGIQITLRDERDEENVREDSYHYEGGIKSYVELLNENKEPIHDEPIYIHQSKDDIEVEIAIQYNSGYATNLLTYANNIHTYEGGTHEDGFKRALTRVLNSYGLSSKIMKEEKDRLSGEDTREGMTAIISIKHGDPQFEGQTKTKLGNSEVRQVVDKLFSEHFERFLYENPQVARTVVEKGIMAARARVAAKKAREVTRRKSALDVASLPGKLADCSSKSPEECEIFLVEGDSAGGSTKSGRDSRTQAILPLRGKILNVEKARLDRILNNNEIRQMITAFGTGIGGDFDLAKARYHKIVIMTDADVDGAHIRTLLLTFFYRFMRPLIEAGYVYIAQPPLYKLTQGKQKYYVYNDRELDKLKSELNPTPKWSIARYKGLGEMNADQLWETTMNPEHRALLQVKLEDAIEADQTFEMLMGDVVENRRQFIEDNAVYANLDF
Sequence of S. aureus DNA gyrase (P20831 whole entry partner): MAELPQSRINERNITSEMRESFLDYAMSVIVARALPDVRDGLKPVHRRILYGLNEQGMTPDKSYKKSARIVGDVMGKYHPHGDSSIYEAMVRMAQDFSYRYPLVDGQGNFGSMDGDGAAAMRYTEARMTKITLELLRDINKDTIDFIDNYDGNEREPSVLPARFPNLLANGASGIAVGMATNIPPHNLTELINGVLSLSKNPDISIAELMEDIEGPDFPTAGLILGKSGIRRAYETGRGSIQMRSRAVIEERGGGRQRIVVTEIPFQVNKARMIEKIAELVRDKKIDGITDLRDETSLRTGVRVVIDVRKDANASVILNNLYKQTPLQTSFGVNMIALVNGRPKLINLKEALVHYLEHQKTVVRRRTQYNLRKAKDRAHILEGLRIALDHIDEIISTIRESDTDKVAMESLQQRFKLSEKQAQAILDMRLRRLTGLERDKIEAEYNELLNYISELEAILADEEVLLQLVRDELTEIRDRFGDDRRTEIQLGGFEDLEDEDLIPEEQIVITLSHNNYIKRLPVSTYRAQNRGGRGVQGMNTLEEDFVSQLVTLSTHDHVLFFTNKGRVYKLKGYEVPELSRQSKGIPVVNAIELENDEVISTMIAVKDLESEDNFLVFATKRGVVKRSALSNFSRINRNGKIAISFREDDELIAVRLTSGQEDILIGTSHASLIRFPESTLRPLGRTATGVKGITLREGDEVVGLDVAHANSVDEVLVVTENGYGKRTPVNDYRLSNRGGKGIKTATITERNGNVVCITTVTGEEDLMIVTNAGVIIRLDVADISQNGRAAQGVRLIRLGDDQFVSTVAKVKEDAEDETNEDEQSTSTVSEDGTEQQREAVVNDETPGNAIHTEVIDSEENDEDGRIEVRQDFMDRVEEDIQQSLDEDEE

Turning to `Cc1[nH]c(C(=O)Nc2ccc(C(=O)NCC(=O)O)cc2N2CCN(C(=O)OC(C)(C)C)CC2)c(Cl)c1Cl` [Compound 8a, (3-(4-(tert-Butoxycarbonyl)piperazin-1-yl)-4-(3,4-dichloro-5-methyl-1H-pyrrole-2-carboxamido)benzoyl)glycine], half-maximal inhibition in [1] (IC50) required 84.1 nM. For the same compound, the values for the remaining activity at 1 µM in [2], in [3] and in experiment [4] were 37%, 93% and 22%, respectively.

Take `Cc1[nH]c(C(=O)Nc2ccc(C(=O)NCC(=O)O)cc2N2CC[C@H](N)C2)c(Cl)c1Cl` [Compound 10b, (S)-1-(5-((Carboxymethyl)carbamoyl)-2-(3,4-dichloro-5-methyl-1H-pyrrole-2-carboxamido)phenyl)pyrrolidin-3-aminium chloride]: the IC50 (as a rule, the midpoint of a concentration-inhibition curve) in experiment [1] was found to be 19.3 nM; in experiment [2], 112 nM; in [3], 958 nM; in experiment [4], 2560 nM. Moreover, the remaining activity at 10 µM in experiment [5] was 82%.

As to `Cc1[nH]c(C(=O)Nc2ccc(C(=O)O)cc2N2CCN(c3ccccc3)CC2)c(Cl)c1Cl` [Compound 18h, 4-(3,4-Dichloro-5-methyl-1H-pyrrole-2-carboxamido)-3-(4-phenylpiperazin-1-yl)benzoic acid], the remaining activity at 10 µM in experiment [3] was 85%. For the same compound, the MIC in experiment [6], in [7], in experiment [8], in [9], in [10] and in experiment [11] was over 64 µg/mL each time. The MIC in [12], in [13] and in experiment [14] was over 64 µg/mL throughout.

The compound `COC(=O)c1ccc(NC(=O)c2[nH]c(C)c(Cl)c2Cl)c(N2CCNCC2)c1.Cl` [Compound 19a, 4-(2-(3,4-Dichloro-5-methyl-1H-pyrrole-2-carboxamido)-5-(methoxycarbonyl)phenyl)piperazin-1-ium chloride] registered an IC50 in [1] of 100 nM. For the same compound, the results for the remaining activity at 1 µM in experiment [2], in [3] and in experiment [4] were 45%, 102% and 95%, respectively. The minimum inhibitory concentration (MIC) (as a rule, the lowest concentration that inhibits growth of the organism) was over 32 µg/mL in experiment [6]; over 32 µg/mL in experiment [10]; over 32 µg/mL in experiment [11]; 16 µg/mL in [15]; over 32 µg/mL in [16]; over 32 µg/mL in [17].

Consider `COC(=O)c1ccc(NC(=O)c2[nH]c(C)c(Cl)c2Cl)c(N2CCC[C@H](N)C2)c1.Cl` [Compound 19c, (S)-1-(2-(3,4-Dichloro-5-methyl-1H-pyrrole-2-carboxamido)-5-(methoxycarbonyl)phenyl)piperidin-3-aminium chloride], for which the IC50 in [1] turned out to be 120 nM. For the same compound, the results for the remaining activity at 1 µM in experiment [2] and in [3] were 27% and 79%, respectively. Besides, the MIC in experiment [6] was 8 µg/mL; in experiment [10] it was over 32 µg/mL; in experiment [11] it was over 32 µg/mL; in experiment [15], 16 µg/mL; in [13] it was 4 µg/mL; in [16] it was over 32 µg/mL. Also, the MIC in [17] was over 32 µg/mL.

Turning to `COC(=O)c1ccc(NC(=O)c2[nH]c(C)c(Cl)c2Cl)c(N2CCCC(CN)C2)c1.Cl` (stereo not drawn) [Compound 19i, (1-(2-(3,4-Dichloro-5-methyl-1H-pyrrole-2-carboxamido)-5-(methoxycarbonyl)phenyl)piperidin-3-yl)methanaminium chloride], the figures for the IC50 in experiment [1] and in experiment [3] were 14.2 nM and 533 nM, respectively. The minimum inhibitory concentration (MIC) in [6] was 8 µg/mL; in [7], 2 µg/mL; in experiment [8] it was 1 µg/mL; in experiment [10] it was 4 µg/mL; in experiment [11] it was over 32 µg/mL; in experiment [12] it was 8 µg/mL. Besides, the MIC in experiment [15] is 8 µg/mL; in experiment [13], 8 µg/mL; in experiment [16], over 32 µg/mL; in experiment [14], over 64 µg/mL; in [17], over 32 µg/mL.

For the compound `Cc1[nH]c(C(=O)Nc2ccc(C(=O)O)cc2N2CCNCC2)c(Cl)c1Cl.Cl` [Compound 20a, 4-(5-Carboxy-2-(3,4-dichloro-5-methyl-1H-pyrrole-2-carboxamido)phenyl)piperazin-1-ium chloride], the remaining activity at 1 µM in experiment [3] amounted to 106%; in [4], 92%. Further, the remaining activity at 40 µM in experiment [5] was determined as 116%. For the same compound, the MIC in [6] is over 32 µg/mL; in experiment [7], over 64 µg/mL; in [8], over 64 µg/mL; in experiment [10] it was over 32 µg/mL; in experiment [11], over 32 µg/mL; in experiment [12] it was over 64 µg/mL. Besides, the MIC was over 32 µg/mL in [15]; over 64 µg/mL in experiment [13]; over 32 µg/mL in [16]; over 64 µg/mL in experiment [14]; over 32 µg/mL in [17].

For the compound `Cc1[nH]c(C(=O)Nc2ccc(C(=O)O)cc2N2CCC[C@H](N)C2)c(Cl)c1Cl.Cl` [Compound 20c, (S)-1-(5-Carboxy-2-(3,4-dichloro-5-methyl-1H-pyrrole-2-carboxamido)phenyl)piperidin-3-aminium chloride], the IC50 in experiment [1] turned out to be 134 nM. Moreover, the remaining activity at 1 µM in experiment [3] turned out to be 78%. For the same compound, the MIC in [6] is over 32 µg/mL; in experiment [7], over 64 µg/mL; in experiment [8], over 64 µg/mL; in experiment [10], over 32 µg/mL; in [11], over 32 µg/mL; in experiment [12], over 64 µg/mL. The MIC was over 32 µg/mL in experiment [15]; over 64 µg/mL in experiment [13]; over 32 µg/mL in [16]; over 64 µg/mL in experiment [14]; over 32 µg/mL in [17].

In the case of `Cc1[nH]c(C(=O)Nc2ccc(C(=O)O)cc2NC2CCNCC2)c(Cl)c1Cl.Cl` [Compound 20d, 4-((5-Carboxy-2-(3,4-dichloro-5-methyl-1H-pyrrole-2-carboxamido)phenyl)amino)piperidin-1-ium chloride], the remaining activity at 10 µM in [3] is 89%. Moreover, the MIC in experiment [6], in experiment [7], in [8], in experiment [9], in [10] and in experiment [11] was over 64 µg/mL throughout. Further, the MIC in experiment [12], in experiment [13] and in [14] was over 64 µg/mL each time.

For `Cc1[nH]c(C(=O)Nc2ccc(-c3n[nH]c(=O)o3)cc2NC2CCNCC2)c(Cl)c1Cl.Cl` [Compound 23d, 4-((2-(3,4-Dichloro-5-methyl-1H-pyrrole-2-carboxamido)-5-(5-oxo-4,5-dihydro-1,3,4-oxadiazol-2-yl)phenyl)amino)piperidin-1-ium chloride], the IC50 in experiment [3] amounted to 1260 nM. Further, in experiment [5], the remaining activity at 10 µM was 99%. The minimal inhibitory concentration (MIC) in experiment [6], in [7], in [8], in experiment [9], in experiment [10] and in experiment [11] was over 64 µg/mL each time. Also, the MIC in experiment [12] was over 64 µg/mL; in experiment [13] it was 2 µg/mL; in experiment [14], over 64 µg/mL.

As to `Cc1[nH]c(C(=O)Nc2ccc(-c3n[nH]c(=O)o3)cc2OCc2ccccc2)c(Cl)c1Cl` [Compound 39, N-(2-(Benzyloxy)-4-(5-oxo-4,5-dihydro-1,3,4-oxadiazol-2-yl)phenyl)-3,4-dichloro-5-methyl-1H-pyrrole-2-carboxamide], in experiment [3], the remaining activity at 1 µM was 101%. In addition, in experiment [5], the remaining activity at 100 µM amounted to 104%. Also, the MIC in [6], in experiment [7], in experiment [8], in [9], in experiment [10] and in experiment [11] was over 32 µg/mL each time. The MIC in experiment [12], in [13] and in experiment [14] was over 32 µg/mL throughout.
